From US20240246918A1, “COMPOUNDS AND COMPOSITIONS AS EIF4E INHIBITORS AND THE USES THEREOF” (Ribometrix, Inc., priority 2022, published 2024) come the findings set out here.

For experiment [1], the system named is COLO 205 colorectal tumor cells. Nature of the experiment: Tumor cell viability inhibition assay (CellTiter-Glo 2.0, 72 hours). Format: cell-based. The following applies: COLO 205 cell viability. In outline:
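COLO 205 cells (1500/well, RPMI-1640 + 10% FBS) exposed for 72 h to an 11-point, 4-fold dilution series; cellular ATP read by CellTiter-Glo 2.0 luminescence. Data normalized to DMSO and maximum-inhibition controls; IC50 from 4-parameter curve fit.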

Experiment [2] has as its target T1, human eIF4E protein (Homo sapiens, UniProt P06730).
T1 construct: purchased Novus NBP-45314
Nature of the experiment: Biochemical competitive binding assay (TR-FRET competition, EDA-m7GDP-ATTO-647N probe). The following applies: read-out: hEIF4E TR-FRET IC50. In outline: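 His-tagged human eIF4E (4 nM) was preincubated with Eu-anti-His antibody (2.5 nM) and added to compound (11-point, 4-fold dilutions) for 15 min. Then 5 nM EDA-m7GDP-ATTO-647N was added for 15 min, in HEPES pH 7.5, 100 mM KCl. The 665/620 TR-FRET ratio was normalized to controls, and IC50 was taken from 4-parameter fits.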

T1 sequence (P06730 whole entry): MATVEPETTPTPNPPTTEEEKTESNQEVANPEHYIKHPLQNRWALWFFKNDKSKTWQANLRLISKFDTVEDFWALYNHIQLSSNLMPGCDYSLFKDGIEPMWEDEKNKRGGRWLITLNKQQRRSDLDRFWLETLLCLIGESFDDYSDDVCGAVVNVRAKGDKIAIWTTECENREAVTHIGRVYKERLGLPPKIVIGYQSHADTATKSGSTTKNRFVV

On to `Cc1cc(-c2cc(Cl)ccc2OCCn2c(C)nc3c(c2=O)C[C@@H](N2CCC4(CCCO4)CC2)CC3)c2scc(C(=O)O)c2n1` (single isomer, unassigned) [Compound 421], for which the IC50 in experiment [1] (Homo sapiens, COLO 205, 72 h) is below 5 µM; in experiment [2] it was below 0.1 µM.
On to `Cc1cc(-c2cc(Cl)ccc2OCCn2c(C)nc3c(c2=O)CC(C)(N2CCC(C(F)(F)F)CC2)CC3)c2scc(C(=O)O)c2n1` (single isomer, unassigned) [Compound 531], for which the IC50 in experiment [1] was below 5 µM; in experiment [2], below 0.1 µM.
In the case of `Cc1cc(-c2cc(Cl)ccc2OCCn2c(C)nc3c(c2=O)C[C@H](N2CCO[C@H](COC(F)(F)F)C2)CC3)c2scc(C(=O)O)c2n1` (single isomer, unassigned) [Compound 478], the IC50 in experiment [1] (Homo sapiens, COLO 205, 72 h) was below 5 µM; in experiment [2] it was below 0.1 µM.
In the same order, the values of `Cc1cc(-c2cc(Cl)ccc2OCCn2c(C)nc3c(c2=O)C[C@@H](N2CCC(n4cc(Cl)cn4)CC2)CC3)c2scc(C(=O)O)c2n1` (single isomer, unassigned) [Compound 109] are below 5 µM and below 0.1 µM.
For the molecule `Cc1cc(-c2cc(Cl)ccc2OCCn2c(C)nc3c(c2=O)C[C@H](N2CCC(c4ccc(F)cc4F)CC2)CC3)c2scc(C(=O)O)c2n1` (single isomer, unassigned) [Compound 418], the IC50 is below 5 µM in experiment [1] (Homo sapiens, COLO 205, 72 h) and below 0.1 µM in experiment [2].
`Cc1cc(-c2cc(Cl)ccc2OCCn2c(C)nc3c(c2=O)C[C@H](N2CCC[C@H](C(F)F)C2)CC32CC2)c2scc(C(=O)O)c2n1` (single isomer, unassigned) [Compound 617]: the half-maximal inhibitory concentration (IC50) in experiment [1] (Homo sapiens, COLO 205, 72 h) was below 5 µM; in experiment [2], below 0.1 µM.
In the same order, the values of `Cc1cc(-c2cc(Cl)ccc2OCCn2c(C)nc3c(c2=O)C[C@@H](N2CC[C@H](OC(F)(F)F)C(C)(C)C2)CC3)c2scc(C(=O)O)c2n1` (single isomer, unassigned) [Compound 392] are below 5 µM and below 0.1 µM.
Turning to `Cc1cc(-c2cc(Cl)ccc2OCCn2c(C)nc3c(c2=O)C[C@H](N2CCC(c4cncc(S(=O)(=O)NC(C)(C)C)c4)CC2)CC3)c2scc(C(=O)O)c2n1` (single isomer, unassigned) [Compound 455], the concentration for half-maximal inhibition (IC50) in experiment [1] (Homo sapiens, COLO 205, 72 h) was below 5 µM; in experiment [2], below 0.1 µM.
For the molecule `Cc1cc(-c2cc(Cl)ccc2OCCn2c(C)nc3c(c2=O)C[C@H](N2CCC(c4ccccc4OC(F)(F)F)CC2)CC3)c2scc(C(=O)O)c2n1` (single isomer, unassigned) [Compound 571], the half-maximal inhibitory concentration (IC50) in experiment [1] (Homo sapiens, COLO 205, 72 h) was below 5 µM; in experiment [2], below 0.1 µM.
`Cc1cc(-c2cc(Cl)ccc2OCCn2c(C)nc3c(c2=O)C[C@@H](N2CCC[C@@H](C(F)F)C2)CC32CC2)c2scc(C(=O)O)c2n1` (single isomer, unassigned) [Compound 609]: the half-maximal inhibitory concentration (IC50) in experiment [1] (Homo sapiens, COLO 205, 72 h) was below 5 µM; in experiment [2], below 0.1 µM.
In the case of `Cc1nc2c(c(=O)n1CC#Cc1ccc(Cl)cc1-c1ccnc3c(C(=O)O)csc13)C[C@@H](N1CCC[C@]3(C1)CC3(F)F)CC2` (single isomer, unassigned) [Compound 537, 7-(5-chloro-2-(3-(6-(1,1-difluoro-5-azaspiro[2.5]octan-5-yl)-2-methyl-4-oxo-5,6,7,8-tetrahydroquinazolin-3(4H)-yl)prop-1-yn-1-yl)phenyl)thieno[3,2-b]pyridine-3-carboxylic acid], the half-maximal inhibitory concentration (IC50) in experiment [1] (Homo sapiens, COLO 205, 72 h) was 5 to 20 µM; in experiment [2], below 0.1 µM.
Take `Cc1cc(-c2cc(Cl)ccc2OCCn2c(C)nc3c(c2=O)CC(C)(N2CCC(OC(F)(F)F)CC2)CC3)c2scc(C(=O)O)c2n1` (single isomer, unassigned) [Compound 515]: the IC50 was below 5 µM in experiment [1] (Homo sapiens, COLO 205, 72 h) and below 0.1 µM in experiment [2].
For `Cc1cc(-c2cc(Cl)ccc2OCCn2c(C)nc3c(c2=O)C[C@H](N2CCC(c4ncco4)CC2)CC3)c2scc(C(=O)O)c2n1` (single isomer, unassigned) [Compound 460], the IC50 is below 5 µM in experiment [1] (Homo sapiens, COLO 205, 72 h) and below 0.1 µM in experiment [2].
Take `Cc1cc(-c2cc(Cl)ccc2OCCn2c(C)nc3c(c2=O)C[C@@H](N2CCCC[C@H]2c2cccc(C(F)(F)F)c2)CC3)c2scc(C(=O)O)c2n1` (single isomer, unassigned) [Compound 589]: the IC50 in experiment [1] (Homo sapiens, COLO 205, 72 h) is above 20 µM; in experiment [2] it was 0.1 to 0.5 µM.
As to `Cc1cc(-c2cc(Cl)ccc2OCCn2c(C)nc3c(c2=O)C[C@@H](N2CC[C@@H](OC(F)(F)F)C(C)(C)C2)CC3)c2scc(C(=O)O)c2n1` (single isomer, unassigned) [Compound 393], the IC50 in experiment [1] (Homo sapiens, COLO 205, 72 h) is 5 to 20 µM; in experiment [2], below 0.1 µM.
As for `Cc1cc(-c2cc(Cl)ccc2OCCn2c(C)nc3c(c2=O)C[C@H](N2CCC[C@@]4(CN(CC(F)(F)F)CC4(F)F)C2)CC3)c2scc(C(=O)O)c2n1` (single isomer, unassigned) [Compound 513], the IC50 was below 5 µM in experiment [1] (Homo sapiens, COLO 205, 72 h) and below 0.1 µM in experiment [2].
For the molecule `COC1CCN([C@@H]2CCc3nc(C)n(CCOc4ccc(Cl)cc4-c4cc(C)nc5c(C(=O)O)csc45)c(=O)c3[C@@H]2C)CC1` (stereo in doubt) [Compound 103, 7-(5-chloro-2-(2-(6-(4-methoxypiperidin-1-yl)-2,5-dimethyl-4-oxo-5,6,7,8-tetrahydroquinazolin-3(4H)-yl)ethoxy)phenyl)-5-methylthieno[3,2-b]pyridine-3-carboxylic acid], the IC50 was 5 to 20 µM in experiment [1] (Homo sapiens, COLO 205, 72 h) and below 0.1 µM in experiment [2].
For `Cc1cc(-c2cc(Cl)ccc2OCCn2c(C)nc3c(c2=O)CC(N2CC4(CCCNC4)C2)CC3)c2scc(C(=O)O)c2n1` (single isomer, unassigned) [Compound 510], the values for the concentration for half-maximal inhibition (IC50) in experiment [1] and in experiment [2] were above 20 µM and below 0.1 µM, respectively.
As to `Cc1cc(-c2cc(Cl)ccc2OCCn2c(C)nc3c(c2=O)C[C@@H](N2CCC(c4nc5ccc(F)cc5s4)CC2)CC3)c2scc(C(=O)O)c2n1` (single isomer, unassigned) [Compound 594], the IC50 was below 5 µM in experiment [1] (Homo sapiens, COLO 205, 72 h) and below 0.1 µM in experiment [2].
For `Cc1cc(-c2cc(Cl)ccc2OCCn2c(C)nc3c(c2=O)C[C@@H](N2CCC[C@@]4(CN(CC(F)(F)F)CC4(F)F)C2)CC3)c2scc(C(=O)O)c2n1` (single isomer, unassigned) [Compound 514], the half-maximal inhibitory concentration (IC50) in experiment [1] (Homo sapiens, COLO 205, 72 h) is above 20 µM; in experiment [2] it was 0.5 to 5 µM.
Turning to `Cc1cc(-c2cc(Cl)ccc2OCCn2c(C)nc3c(c2=O)C[C@@](C)(N2CCC[C@]4(C2)CC4(F)F)CC3)c2scc(C(=O)O)c2n1` (single isomer, unassigned) [Compound 539], the IC50 in experiment [1] (Homo sapiens, COLO 205, 72 h) was below 5 µM; in experiment [2], below 0.1 µM.
With `Cc1cc(-c2cc(Cl)ccc2OCCn2c(C)nc3c(c2=O)C[C@H](N2Cc4cc(F)c(F)cc4C2)CC3)c2scc(C(=O)O)c2n1` (single isomer, unassigned) [Compound 532], the IC50 in experiment [1] (Homo sapiens, COLO 205, 72 h) was below 5 µM; in experiment [2], below 0.1 µM.
With `Cc1cc(-c2cc(Cl)ccc2OCCn2c(C)nc3c(c2=O)CC(N2CCC4(CCN(CC(F)(F)F)C4)C2)CC3)c2scc(C(=O)O)c2n1` (single isomer, unassigned) [Compound 505], the IC50 in experiment [1] (Homo sapiens, COLO 205, 72 h) is below 5 µM; in experiment [2] it was below 0.1 µM.
Regarding `Cc1cc(-c2cc(Cl)ccc2OCCn2c(C)nc3c(c2=O)C[C@H](N2CCC(c4ncccc4F)CC2)CC3)c2scc(C(=O)O)c2n1` (single isomer, unassigned) [Compound 444], the IC50 is below 5 µM in experiment [1] (Homo sapiens, COLO 205, 72 h) and below 0.1 µM in experiment [2].
On to `CO[C@H]1CCN([C@@H]2CCc3nc(C)n(CCOc4ccc(Cl)cc4-c4cc(C)nc5c(C(=O)O)csc45)c(=O)c3C2)CC1(C)C` (single isomer, unassigned) [Compound 415], for which the IC50 is below 5 µM in experiment [1] (Homo sapiens, COLO 205, 72 h) and below 0.1 µM in experiment [2].
In the same order, the values of `Cc1cc(-c2cc(Cl)ccc2OCCn2c(C)nc3c(c2=O)C[C@H](N2CCC[C@H](C(F)F)C2)CC3)c2scc(C(=O)O)c2n1` (single isomer, unassigned) [Compound 117] are below 5 µM and below 0.1 µM.
As to `Cc1cc(-c2cc(Cl)ccc2OCCn2c(C)nc3c(c2=O)C[C@H](N2CCC[C@@]4(C2)CC4(F)F)CC3(C)C)c2scc(C(=O)O)c2n1` (single isomer, unassigned) [Compound 439], the half-inhibitory concentration (IC50) was below 5 µM in experiment [1] (Homo sapiens, COLO 205, 72 h) and below 0.1 µM in experiment [2].
In the same order, the values of `Cc1cc(-c2cc(Cl)ccc2OCCn2c(C)nc3c(c2=O)CC(N2CC4(CCC(F)(F)CC4)C2)CC3)c2scc(C(=O)NS(C)(=O)=O)c2n1` (single isomer, unassigned) [Compound 363] are below 5 µM and below 0.1 µM.
As for `Cc1cc(-c2cc(Cl)ccc2OCCn2c(C)nc3c(c2=O)CC(CN(C)C)(N2CCC(OC(F)(F)F)CC2)CC3)c2scc(C(=O)O)c2n1` (single isomer, unassigned) [Compound 620], the IC50 is below 5 µM in experiment [1] and below 0.1 µM in experiment [2].
As for `Cc1cc(-c2cc(Cl)ccc2OCCn2c(C)nc3c(c2=O)C[C@@H](N2CCC(C(F)(F)F)CC2)CC32CC2)c2scc(C(=O)O)c2n1` (single isomer, unassigned) [Compound 603], the half-inhibitory concentration (IC50) in experiment [1] (Homo sapiens, COLO 205, 72 h) was below 5 µM; in experiment [2], below 0.1 µM.
In the same order, the values of `Cc1cc(-c2cc(Cl)ccc2OCCn2c(C)nc3c(c2=O)C[C@@H](N2CCC(OC(F)F)CC2)CC3)c2scc(C(=O)O)c2n1` (single isomer, unassigned) [Compound 360] are below 5 µM and below 0.1 µM.
In the same order, the values of `Cc1cc(-c2cc(Cl)ccc2OCCn2c(C)nc3c(c2=O)C[C@H](N2CCC[C@@H](C(F)F)C2)CC3)c2scc(C(=O)O)c2n1` (single isomer, unassigned) [Compound 116] are below 5 µM and below 0.1 µM.
`Cc1cc(-c2cc(Cl)ccc2OCCn2c(C)nc3c(c2=O)C[C@H](N2CCCC(F)(F)CC2)CC32CC2)c2scc(C(=O)O)c2n1` (single isomer, unassigned) [Compound 545]: the IC50 in experiment [1] (Homo sapiens, COLO 205, 72 h) is below 5 µM; in experiment [2] it was below 0.1 µM.
